Test results published in US4356119A, “Therapeutically active polypeptides or acid addition salts and a process for producing such compounds” (Nordisk Insulinlaboratorium, priority 1978, dated 1982).
Where a SMILES comes first, the peptide text is derived from it.

Columns and labels:
fat cells = test: insulin potentiating effect on glucose metabolism in isolated fat cells; format: cell-based; settings: 50 ng/ml insulin + 0 μg/ml peptide = 100%
From the text: In vitro determination of the insulin potentiating effect of the peptides on the metabolism of glucose has given the following results, the general methods being described elsewhere (3).
All other values are based on this.

Langerhan's islets = test: glucose stimulated insulin secretion from isolated Langerhan's islets; format: cell-based; settings: 10 mM glucose, hydrochlorides
Description: In vitro determination of the effect of the peptides on the glucose stimulated insulin secretion was carried out on Langerhan's islets isolated by collagenase technique and preincubated 24 hours at 37° C. Secretion tests were conducted with 10 mM of glucose and three peptide concentrations.
All peptides have been tested in the form of their hydrochlorides together with 10 mM of glucose, and the values are calculated as a percentage of the effect of 10 mM of glucose alone.

[1] = pharmacological dosages; Enk et al. (6); cited from earlier work
[2] = insulin 0 ng/ml, peptide 0.01 μg/ml
[3] = insulin 0 ng/ml, peptide 0.1 μg/ml
[4] = insulin 0 ng/ml, peptide 1 μg/ml
[5] = insulin 0 ng/ml, peptide 10 μg/ml
[6] = insulin 0 ng/ml, peptide 100 μg/ml
[7] = insulin 0.6 ng/ml, peptide 0.01 μg/ml
[8] = insulin 0.6 ng/ml, peptide 0.1 μg/ml
[9] = insulin 0.6 ng/ml, peptide 1 μg/ml
[10] = insulin 0.6 ng/ml, peptide 10 μg/ml
[11] = insulin 0.6 ng/ml, peptide 100 μg/ml
[12] = insulin 50 ng/ml, peptide 0.01 μg/ml
[13] = insulin 50 ng/ml, peptide 0.1 μg/ml
[14] = insulin 50 ng/ml, peptide 1 μg/ml
[15] = insulin 50 ng/ml, peptide 10 μg/ml
[16] = insulin 50 ng/ml, peptide 100 μg/ml

Row | Compound | glucose metabolism in fat cells (fat cells; [2]) [%] | glucose metabolism in fat cells (fat cells; [3]) [%] | glucose metabolism in fat cells (fat cells; [4]) [%] | glucose metabolism in fat cells (fat cells; [5]) [%] | glucose metabolism in fat cells (fat cells; [6]) [%] | glucose metabolism in fat cells (fat cells; [7]) [%] | glucose metabolism in fat cells (fat cells; [8]) [%] | glucose metabolism in fat cells (fat cells; [9]) [%] | glucose metabolism in fat cells (fat cells; [10]) [%] | glucose metabolism in fat cells (fat cells; [11]) [%] | glucose metabolism in fat cells (fat cells; [12]) [%] | glucose metabolism in fat cells (fat cells; [13]) [%] | glucose metabolism in fat cells (fat cells; [14]) [%] | glucose metabolism in fat cells (fat cells; [15]) [%] | glucose metabolism in fat cells (fat cells; [16]) [%] | glucose stimulated insulin secretion, percentage of the effect of 10 mM of glucose alone (Langerhan's islets) [%] | glucose stimulated insulin secretion, percentage of the effect of 10 mM of glucose alone (Langerhan's islets; peptide 5 mmolar) [%] | glucose stimulated insulin secretion, percentage of the effect of 10 mM of glucose alone (Langerhan's islets; peptide 5 × 10^-2 mmolar) [%] | blood sugar level [1] | secretion of insulin [1]
1 | COC(=O)[C@H](CCCNC(=N)N)NC(=O)[C@H](C)NC(=O)[C@H](CO)NC(=O)[C@@H](N)CC(=O)O [compound 3, asp-ser-ala-arg-OMe, 2HCl] (H-DSAR-OMe) | 8 | 8 | 8 | 8 | 16 | 90 | 85 | 80 | 80 | 100 | 114 | 112 | 108 | 108 | 124 | – | – | – | – | –
2 | COC(=O)[C@H](CCCNC(=N)N)NC(=O)CNC(=O)CNC(=O)CNC(=O)[C@@H](N)CCC(=O)O [compound 6, glugly-gly-gly-arg-OMe, 2HCl] (H-EGGGR-OMe) | – | – | – | – | 10 | – | – | – | – | 89 | – | – | – | – | 121 | – | – | – | – | –
3 | glu-leu-ser-arg-OMe, 2HCl [compound 1] | 22 | 22 | 22 | 22 | 22 | 94 | 90 | 88 | 91 | 108 | 118 | 113 | 112 | 113 | 126 | 59 | 51 | 76 | – | –
4 | glu-leu-ser-arg-leu-arg-OMe, 3HCl [compound 2] | 20 | 20 | 21 | 20 | 15 | 83 | 88 | 86 | 85 | 55 | 114 | 112 | 108 | 112 | 70 | 73 | 113 | 66 | – | –
5 | glu-leu-ser-arg-leu-arg-asp-ser-ala-arg-OMe, 4HCl [compound 4] | – | – | – | – | – | – | – | – | – | – | – | – | – | – | – | 41 | 9 | 96 | – | –
6 | secretin | – | – | – | – | – | – | – | – | – | – | – | – | – | – | – | – | – | – | without affecting the blood sugar level | potentiate secretion of insulin
